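Five compound concentrations were applied to cells in 96-well plates for 48 hours; endpoints were derived by simple linear interpolation of the resulting dose-response curve. Abbreviation: GI50, concentration required for 50% inhibition of growth. At the TGI there is no net growth.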
Key:
Experiment in all cases: NCI tumour cell line growth inhibition, 48 h
A498 renal = system: A498 renal
CAKI-1 renal = system: CAKI-1 renal
M14 melanoma = system: M14 melanoma
NCI-H522 lung = system: NCI-H522 lung
SF-539 CNS = system: SF-539 CNS
SK-MEL-2 melanoma = system: SK-MEL-2 melanoma
SK-MEL-28 melanoma = system: SK-MEL-28 melanoma
TK-10 renal = system: TK-10 renal
UO-31 renal = system: UO-31 renal
MOLT-4 leukemia = system: MOLT-4 leukemia
BT-549 breast = system: BT-549 breast
HS 578T breast = system: HS 578T breast
MDA-N = system: MDA-N
T-47D breast = system: T-47D breast

Compound `OCC(O)COc1ccc(Br)cc1` (centres undefined) has a TGI (A498 renal) greater than 100 µM, a TGI (CAKI-1 renal) greater than 100 µM and a TGI (M14 melanoma) greater than 100 µM. For the same compound, the TGI (NCI-H522 lung) was greater than 100 µM, the TGI (SF-539 CNS) was greater than 100 µM and the TGI (SK-MEL-2 melanoma) was greater than 100 µM. The TGI (SK-MEL-28 melanoma) was greater than 100 µM, the TGI (TK-10 renal) was greater than 100 µM and the TGI (UO-31 renal) was greater than 100 µM.
`Cc1ccc(OP2(=O)Oc3ccc4ccccc4c3CN2c2ccc(Cl)cc2)cc1C` (centres undefined) showed a TGI (A498 renal) greater than 100 µM, a TGI (CAKI-1 renal) greater than 100 µM and a TGI (MOLT-4 leukemia) greater than 100 µM. It also gave a TGI (NCI-H522 lung) greater than 100 µM, a TGI (SF-539 CNS) greater than 100 µM and a TGI (SK-MEL-2 melanoma) greater than 100 µM. For the same compound, the TGI (SK-MEL-28 melanoma) was greater than 100 µM and the TGI (UO-31 renal) was greater than 100 µM.
`COc1ccc(C(=O)C2CC3(CCC2(O)c2ccc(OC)cc2)CC(=O)Nc2ccccc2C3=O)cc1` (centres undefined) was tested, and the TGI (A498 renal) was greater than 100 µM, the TGI (BT-549 breast) was greater than 100 µM and the TGI (CAKI-1 renal) was greater than 100 µM. It also gave a TGI (HS 578T breast) greater than 100 µM, a TGI (M14 melanoma) greater than 100 µM and a TGI (MDA-N) greater than 100 µM. The TGI (SF-539 CNS) was greater than 100 µM, the TGI (SK-MEL-2 melanoma) was greater than 100 µM and the TGI (T-47D breast) was greater than 100 µM. For the same compound, the TGI (TK-10 renal) was greater than 100 µM and the TGI (UO-31 renal) was greater than 100 µM.
Compound `CO/C(=N\N=C(/C)C(F)(F)F)c1ccncc1` has a TGI (A498 renal) greater than 100 µM, a TGI (BT-549 breast) greater than 100 µM and a TGI (CAKI-1 renal) greater than 100 µM. For the same compound, the TGI (HS 578T breast) was greater than 100 µM, the TGI (M14 melanoma) was greater than 100 µM and the TGI (MDA-N) was greater than 100 µM. For the same compound, the TGI (MOLT-4 leukemia) was greater than 100 µM, the TGI (NCI-H522 lung) was greater than 100 µM and the TGI (SK-MEL-2 melanoma) was greater than 100 µM. For the same compound, the TGI (SK-MEL-28 melanoma) was greater than 100 µM, the TGI (T-47D breast) was greater than 100 µM and the TGI (UO-31 renal) was greater than 100 µM.
Compound `CCOc1ncn(-c2ccc(NC(=S)Nc3cccc(O)c3)cc2)n1` has a TGI (BT-549 breast) greater than 100 µM, a TGI (M14 melanoma) greater than 100 µM and a TGI (MDA-N) greater than 100 µM. The TGI (MOLT-4 leukemia) was greater than 100 µM, the TGI (NCI-H522 lung) was greater than 100 µM and the TGI (SF-539 CNS) was greater than 100 µM. For the same compound, the TGI (SK-MEL-28 melanoma) was greater than 100 µM, the TGI (T-47D breast) was greater than 100 µM and the TGI (TK-10 renal) was greater than 100 µM. It also gave a TGI (UO-31 renal) greater than 100 µM.
`ClCCN(CCCl)Cc1ccc(Nc2ccnc3cc(Cl)ccc23)cc1` showed a GI50 (BT-549 breast) of 2.12 µM, a TGI (BT-549 breast) of 6.04 µM and a GI50 (HS 578T breast) of 2.92 µM. It also gave a TGI (HS 578T breast) of 8.38 µM, a GI50 (MOLT-4 leukemia) of 0.416 µM and a TGI (MOLT-4 leukemia) of 2.78 µM. For the same compound, the GI50 (SK-MEL-28 melanoma) was 2.15 µM, the TGI (SK-MEL-28 melanoma) was 5.31 µM and the GI50 (T-47D breast) was 1.09 µM. For the same compound, the TGI (T-47D breast) was 3.69 µM, the GI50 (TK-10 renal) was 2.42 µM and the TGI (TK-10 renal) was 6.22 µM.
In the case of `COc1ccc2c(O)c3[n+](cc2c1OC)CCc1cc2c(cc1-3)OCO2`, the TGI (A498 renal) is reported as greater than 100 µM, the TGI (BT-549 breast) is reported as greater than 100 µM and the TGI (CAKI-1 renal) is reported as greater than 100 µM. The TGI (HS 578T breast) was greater than 100 µM, the TGI (M14 melanoma) was greater than 100 µM and the TGI (MDA-N) was greater than 100 µM. It also gave a TGI (MOLT-4 leukemia) greater than 100 µM, a TGI (NCI-H522 lung) of 46 µM and a TGI (SF-539 CNS) greater than 100 µM. For the same compound, the TGI (SK-MEL-2 melanoma) was greater than 100 µM, the TGI (T-47D breast) was greater than 100 µM and the TGI (TK-10 renal) was greater than 100 µM.
